# Measurements from patent publication US7964720B2, “Method of making porphyrins” (North Carolina State University, priority 2007, dated 2011).
# What was measured:
# [1] = Text: 4. Solubility. […] We compared the solubility of 1, Pd-1, Zn-1 and Mg-1 in common organic solvents (CH2Cl2, THF, MeOH, ethyl acetate, toluene).
# [2] = Stability of the magnesium chelate in solution and on silica column chromatography; format: physicochemical
# Protocol: Thus, refluxing a mixture of 2 (100 mM) in toluene containing DBU (10 equiv vs. 2) and MgBr2 (3 equiv) in the presence of air afforded Mg(II)porphine (Mg-1) in 41% yield. Note that no quinone oxidant is required. Mg(II)porphine was purified by filtration through an alumina column. No free base porphine was detected in the reaction mixture. […] Neither starting material nor macrocyclic byproducts were detected. Therefore we performed the purification of Mg-1 without column chromatography. The crude reaction mixture was concentrated. The resulting oily material was treated with THF, filtered (to remove the polymeric material and inorganic salt), and filtrate was concentrated. Subsequent washing with water (to remove an excess of DBU) and crystallization from ethanol/water afforded Mg-1 in satisfactory purity. […] Note that Mg(II)porphine (Mg-1) was previously prepared by metalation of 1.^2
# [3] = background statement; cited from earlier work
Compound,general trend in solubility [1],solubility in common organic solvents [1],stability in solution ([2]; in solution),behaviour upon silica column chromatography ([2]; silica column chromatography),solubility of the free base [3]
Mg(II)porphine [Mg-1],Pd-1<1<Zn-1<<Mg-1,sufficiently high,stable in solution,partial decomplexation,
"C1=Cc2cc3ccc(cc4nc(cc5ccc(cc1n2)[nH]5)C=C4)[nH]3 [compound 1, Porphine]",Pd-1<1<Zn-1<<Mg-1,poor solubility,,,extremely low solubility
Pd(II)porphine [Pd-1],Pd-1<1<Zn-1<<Mg-1,,,,
Zn(II)porphine [Zn-1],Pd-1<1<Zn-1<<Mg-1,,,,
